Assay results taken from US9663508B2, “Biaryl acyl-sulfonamide compounds as sodium channel inhibitors” (AMGEN INC., priority 2013, dated 2017).
Read-outs that look alike come from different tables or passages of the source.

Columns and labels:
human Nav1.7 = human Nav1.7 (Homo sapiens (Human), UniProt Q15858); test: Nav 1.7 in vitro PatchXpress (PX) assay; format: cell-based
human Nav 1.5 = human Nav 1.5 (Homo sapiens (Human), UniProt Q14524); test: Nav 1.5 IonWorks Quattro (IWQ) in vitro assay; format: cell-based
Sequence of human Nav 1.5 (Q14524 whole entry): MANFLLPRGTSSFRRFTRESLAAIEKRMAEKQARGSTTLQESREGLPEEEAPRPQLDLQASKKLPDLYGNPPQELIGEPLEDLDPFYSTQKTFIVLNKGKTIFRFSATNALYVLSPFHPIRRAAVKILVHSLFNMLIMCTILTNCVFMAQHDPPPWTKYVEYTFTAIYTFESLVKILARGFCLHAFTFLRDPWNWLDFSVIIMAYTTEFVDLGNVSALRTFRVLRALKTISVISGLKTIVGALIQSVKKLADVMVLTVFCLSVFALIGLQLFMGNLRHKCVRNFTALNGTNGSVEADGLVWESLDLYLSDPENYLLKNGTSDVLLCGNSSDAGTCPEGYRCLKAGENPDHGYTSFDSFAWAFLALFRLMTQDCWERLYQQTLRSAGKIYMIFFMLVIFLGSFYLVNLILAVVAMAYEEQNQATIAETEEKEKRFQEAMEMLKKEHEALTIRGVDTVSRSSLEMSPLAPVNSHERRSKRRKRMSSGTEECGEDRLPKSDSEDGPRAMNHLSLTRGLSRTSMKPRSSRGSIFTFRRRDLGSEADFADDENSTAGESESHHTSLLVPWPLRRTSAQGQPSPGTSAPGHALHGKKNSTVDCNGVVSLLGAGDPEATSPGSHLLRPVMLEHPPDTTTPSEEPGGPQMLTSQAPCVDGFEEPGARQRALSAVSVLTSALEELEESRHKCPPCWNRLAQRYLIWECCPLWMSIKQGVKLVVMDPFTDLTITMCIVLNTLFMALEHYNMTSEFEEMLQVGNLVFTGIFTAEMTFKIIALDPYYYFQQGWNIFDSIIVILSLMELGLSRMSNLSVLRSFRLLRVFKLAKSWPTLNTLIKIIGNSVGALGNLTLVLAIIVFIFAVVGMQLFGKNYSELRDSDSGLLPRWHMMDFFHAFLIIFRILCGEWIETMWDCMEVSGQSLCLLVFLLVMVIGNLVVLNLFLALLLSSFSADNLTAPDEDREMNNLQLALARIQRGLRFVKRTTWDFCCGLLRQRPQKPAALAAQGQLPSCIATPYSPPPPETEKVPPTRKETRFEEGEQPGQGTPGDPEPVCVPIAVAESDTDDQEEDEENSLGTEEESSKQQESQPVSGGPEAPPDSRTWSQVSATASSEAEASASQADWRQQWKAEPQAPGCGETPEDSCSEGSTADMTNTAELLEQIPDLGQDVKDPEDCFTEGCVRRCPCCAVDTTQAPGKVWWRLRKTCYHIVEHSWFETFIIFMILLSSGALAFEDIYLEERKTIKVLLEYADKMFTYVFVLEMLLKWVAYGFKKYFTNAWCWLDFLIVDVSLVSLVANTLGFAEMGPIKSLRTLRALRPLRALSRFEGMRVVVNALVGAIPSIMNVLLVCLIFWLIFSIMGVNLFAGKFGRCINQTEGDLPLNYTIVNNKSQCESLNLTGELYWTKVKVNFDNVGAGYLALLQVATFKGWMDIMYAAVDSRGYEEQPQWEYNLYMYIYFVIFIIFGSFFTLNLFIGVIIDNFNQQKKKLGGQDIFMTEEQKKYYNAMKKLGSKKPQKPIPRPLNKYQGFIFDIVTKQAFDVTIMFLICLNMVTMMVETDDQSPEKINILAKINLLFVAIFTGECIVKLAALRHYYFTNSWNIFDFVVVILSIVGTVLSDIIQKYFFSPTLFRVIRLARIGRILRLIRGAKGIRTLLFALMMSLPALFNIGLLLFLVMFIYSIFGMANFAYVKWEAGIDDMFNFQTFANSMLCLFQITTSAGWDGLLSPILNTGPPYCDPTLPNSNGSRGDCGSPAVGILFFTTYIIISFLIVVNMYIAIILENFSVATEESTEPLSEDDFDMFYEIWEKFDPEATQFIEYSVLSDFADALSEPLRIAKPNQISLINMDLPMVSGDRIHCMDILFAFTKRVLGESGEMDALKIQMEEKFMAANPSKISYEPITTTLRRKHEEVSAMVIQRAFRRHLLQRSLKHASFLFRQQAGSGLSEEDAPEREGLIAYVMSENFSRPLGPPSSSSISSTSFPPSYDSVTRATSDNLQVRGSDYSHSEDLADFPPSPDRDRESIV
Protocol: Nav 1.7 or Nav 1.5 Ion Works Quattro (IWQ) In Vitro Assay
HEK 293 Cells stably transfected with either human Nay 1.7 or human Nay 1.5 were recorded in population patch-clamp mode with the IonWorks® Quattro automated electrophysiology system in accordance with the manufacturer's specifications (Molecular Devices, LLC, Sunnyvale, Calif.). Sodium channel currents were measured in response to a train of depolarizations that induced successively greater inactivation.
Cells were held at −110 mV for three seconds (Nav 1.7) or half a second (Nav 1.5) from a holding voltage of −15 mV, then put through a series of 26 pulses of 150 msec duration to −20 mV at a frequency of 5 Hz. Cells were then left unclamped for a period of 3 to 8 minutes while a single concentration of test compound was added. Cells were then reclamped and put through the same voltage protocol. Current at the end of the 26th pulse to −20 mV was subtracted from the peak current evoked by the 26th pulse to −20 mV to correct for leak current. Percent block was calculated for each concentration in duplicate, and IC50 curves were fitted to percent block as a function of concentration.

[1] = in-vitro Nav 1.5 IWQ data, read-out: NAV 1.5 IWQ (IC50)

Sequence of human Nav1.7 (Q15858 whole entry): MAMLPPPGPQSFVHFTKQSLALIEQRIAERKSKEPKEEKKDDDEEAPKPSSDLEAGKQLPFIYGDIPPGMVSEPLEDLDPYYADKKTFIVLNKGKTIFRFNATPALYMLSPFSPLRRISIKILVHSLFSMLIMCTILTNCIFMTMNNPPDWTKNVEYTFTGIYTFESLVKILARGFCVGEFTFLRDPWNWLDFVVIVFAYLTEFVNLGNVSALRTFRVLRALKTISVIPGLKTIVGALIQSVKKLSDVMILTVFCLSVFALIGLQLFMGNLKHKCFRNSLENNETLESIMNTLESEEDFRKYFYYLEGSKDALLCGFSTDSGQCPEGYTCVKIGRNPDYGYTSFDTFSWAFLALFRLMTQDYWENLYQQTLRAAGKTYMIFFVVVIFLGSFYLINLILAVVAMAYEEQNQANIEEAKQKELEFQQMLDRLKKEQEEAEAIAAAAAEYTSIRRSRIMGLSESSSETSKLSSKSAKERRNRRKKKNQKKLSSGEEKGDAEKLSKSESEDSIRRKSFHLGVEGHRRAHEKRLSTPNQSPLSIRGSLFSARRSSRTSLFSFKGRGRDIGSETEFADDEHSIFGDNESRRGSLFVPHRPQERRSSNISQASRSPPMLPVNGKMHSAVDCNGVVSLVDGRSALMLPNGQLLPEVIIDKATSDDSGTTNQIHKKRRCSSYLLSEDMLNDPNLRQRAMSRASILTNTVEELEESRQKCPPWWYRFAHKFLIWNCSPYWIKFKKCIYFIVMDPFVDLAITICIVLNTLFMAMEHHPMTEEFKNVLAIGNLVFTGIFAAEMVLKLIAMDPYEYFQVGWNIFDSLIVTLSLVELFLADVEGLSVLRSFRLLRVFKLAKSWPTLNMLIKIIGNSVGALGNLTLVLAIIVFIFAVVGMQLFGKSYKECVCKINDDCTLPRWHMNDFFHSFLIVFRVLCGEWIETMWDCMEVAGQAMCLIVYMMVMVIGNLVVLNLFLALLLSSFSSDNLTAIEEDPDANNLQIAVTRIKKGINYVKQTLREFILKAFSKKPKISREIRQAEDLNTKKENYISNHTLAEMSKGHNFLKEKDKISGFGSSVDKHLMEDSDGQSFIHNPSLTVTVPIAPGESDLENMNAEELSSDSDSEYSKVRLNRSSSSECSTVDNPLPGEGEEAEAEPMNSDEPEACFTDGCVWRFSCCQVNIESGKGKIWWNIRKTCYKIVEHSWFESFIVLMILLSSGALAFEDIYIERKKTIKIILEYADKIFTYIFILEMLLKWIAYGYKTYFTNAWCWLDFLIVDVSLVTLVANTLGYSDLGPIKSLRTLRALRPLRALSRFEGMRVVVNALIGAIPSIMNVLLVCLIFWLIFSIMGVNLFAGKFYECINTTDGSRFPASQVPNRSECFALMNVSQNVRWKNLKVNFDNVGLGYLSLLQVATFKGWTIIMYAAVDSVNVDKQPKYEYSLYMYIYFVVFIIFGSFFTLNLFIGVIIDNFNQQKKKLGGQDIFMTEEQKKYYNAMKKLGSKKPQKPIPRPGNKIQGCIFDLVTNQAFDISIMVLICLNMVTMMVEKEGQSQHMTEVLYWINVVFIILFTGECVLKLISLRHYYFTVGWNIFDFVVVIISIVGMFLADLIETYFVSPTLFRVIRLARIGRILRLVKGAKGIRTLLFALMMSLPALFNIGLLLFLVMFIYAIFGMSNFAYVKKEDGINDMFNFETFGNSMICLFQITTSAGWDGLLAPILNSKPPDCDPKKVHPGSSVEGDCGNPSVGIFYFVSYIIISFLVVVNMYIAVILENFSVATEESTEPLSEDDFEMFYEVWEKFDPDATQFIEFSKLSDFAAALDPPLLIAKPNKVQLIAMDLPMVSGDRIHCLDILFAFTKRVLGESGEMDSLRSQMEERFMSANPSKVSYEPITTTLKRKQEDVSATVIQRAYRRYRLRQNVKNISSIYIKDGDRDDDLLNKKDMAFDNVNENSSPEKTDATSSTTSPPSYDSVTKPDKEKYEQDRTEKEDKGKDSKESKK

Compound	IC50 (human Nav1.7)	IC50 (human Nav1.7; in-vitro Nav 1.7 PX data)	IC50 (human Nav 1.5; read-out: NAV 1.5 IWQ IC50)	IC50 (human Nav 1.5; [1])
CC[C@@H](Oc1ncc(-c2cc(F)c(C(=O)NS(C)(=O)=O)cc2Cl)cc1Cl)c1ccc(F)cc1 [Example 596, 5-chloro-4-(5-chloro-6-(((1R)-1-(4-fluorophenyl)propyl)oxy)-3-pyridinyl)-2-fluoro-N-(methylsulfonyl)benzamide, 5-chloro-4-(5-chloro-6-(((1S)-1-(4-fluorophenyl)propyl)oxy)-3-pyridinyl)-2-fluoro-N-(methylsulfonyl)benzamide]	87.9 nM	–	> 3000 nM	–
Cc1cc(C(=O)NS(C)(=O)=O)c(F)cc1-c1cnc(Oc2c(C)ccc3ccccc23)c(Cl)c1 [Example 608, 4-(5-chloro-6-((2-methyl-1-naphthalenyl)oxy)-3-pyridinyl)-2-fluoro-5-methyl-N-(methylsulfonyl)benzamide]	48.1 nM	–	> 3000 nM	–
Cc1cc(C(=O)NS(C)(=O)=O)c(F)cc1-c1cnc(Oc2ccc(C(C)(C)C)cc2Cl)c(Cl)c1 [Example 611, 4-(6-(4-tert-butyl-2-chlorophenoxy)-5-chloro-3-pyridinyl)-2-fluoro-5-methyl-N-(methylsulfonyl)benzamide]	76.1 nM	–	> 3000 nM	–
COc1cc(C(=O)NS(C)(=O)=O)c(F)cc1-c1cnc(O[C@H](C)c2ccccc2)c(Cl)c1 [Example 696, 4-(5-chloro-6-((1R)-1-phenylethoxy)-3-pyridinyl)-2-fluoro-5-methoxy-N-(methylsulfonyl)benzamide, 4-(5-chloro-6-((1S)-1-phenylethoxy)-3-pyridinyl)-2-fluoro-5-methoxy-N-(methylsulfonyl)benzamide]	93 nM	–	> 3000 nM	–
CS(=O)(=O)NC(=O)c1cc(Cl)c(-c2cnc(Oc3cc(F)ccc3F)c(Cl)c2)cc1F [Example 597, 5-chloro-4-(5-chloro-6-(2,5-difluorophenoxy)-3-pyridinyl)-2-fluoro-N-(methylsulfonyl)benzamide]	69.8 nM	–	5390 nM	–
Cc1cc(C(=O)NS(C)(=O)=O)c(F)cc1-c1cnc(Oc2ccc(Br)cc2)c(Cl)c1 [Example 609, 4-(6-(4-bromophenoxy)-5-chloro-3-pyridinyl)-2-fluoro-5-methyl-N-(methylsulfonyl)benzamide]	77.4 nM	–	> 3000 nM	–
Cc1cc(C(=O)NS(C)(=O)=O)c(F)cc1-c1cnc(O[C@H](C)c2ccc(F)cc2Cl)c(Cl)c1 [Example 652, 4-(5-chloro-6-((1R)-1-(2-chloro-4-fluorophenyl)ethoxy)-3-pyridinyl)-2-fluoro-5-methyl-N-(methylsulfonyl)benzamide, 4-(5-chloro-6-((1S)-1-(2-chloro-4-fluorophenyl)ethoxy)-3-pyridinyl)-2-fluoro-5-methyl-N-(methylsulfonyl)benzamide]	66.4 nM	–	> 3000 nM	–
Cc1cc(C(=O)NS(C)(=O)=O)c(F)cc1-c1cnc(O[C@H](C)c2nc3ccccc3s2)c(Cl)c1 [Example 647, 4-(6-((1R)-1-(1,3-benzothiazol-2-yl)ethoxy)-5-chloro-3-pyridinyl)-2-fluoro-5-methyl-N-(methylsulfonyl)benzamide, 4-(6-((1S)-1-(1,3-benzothiazol-2-yl)ethoxy)-5-chloro-3-pyridinyl)-2-fluoro-5-methyl-N-(methylsulfonyl)benzamide]	76 nM	–	> 3000 nM	–
Cc1cc(Cl)cc(Cl)c1Oc1ncc(-c2cc(F)c(C(=O)NS(C)(=O)=O)cc2F)cc1Br [Example 575, 4-(5-bromo-6-(2,4-dichloro-6-methylphenoxy)-3-pyridinyl)-2,5-difluoro-N-(methylsulfonyl)benzamide]	42.4 nM	–	> 4900 nM	–
Cc1cc(C(=O)NS(C)(=O)=O)c(F)cc1-c1cnc(O[C@H]2C[C@H]3CC[C@@H]2C3)c(Cl)c1 [Example 635, 4-(6-((1R,2S,4S)-bicyclo[2.2.1]hept-2-yloxy)-5-chloro-3-pyridinyl)-2-fluoro-5-methyl-N-(methylsulfonyl)benzamide]	80.9 nM	–	> 3000 nM	–

Second part, led by results:

IC50 (human Nav1.7)	IC50 (human Nav1.7; in-vitro Nav 1.7 PX data)	Compound	IC50 (human Nav 1.5; read-out: NAV 1.5 IWQ IC50)	IC50 (human Nav 1.5; [1])
88.2 nM	–	Cc1cc(C(=O)NS(C)(=O)=O)c(F)cc1-c1cnc(Oc2ccc(C)c3c2CCC3)c(Cl)c1 [Example 662, 4-(5-chloro-6-((7-methyl-2,3-dihydro-1H-inden-4-yl)oxy)-3-pyridinyl)-2-fluoro-5-methyl-N-(methylsulfonyl)benzamide]	3770 nM	–
–	87.3 nM	Cc1cc(C(=O)NS(C)(=O)=O)c(F)cc1-c1cnc(O[C@@H](C)c2nc3ccccc3s2)c(Cl)c1 [Example 710, 4-(6-((1S)-1-(1,3-benzothiazol-2-yl)ethoxy)-5-chloro-3-pyridinyl)-2-fluoro-5-methyl-N-(methylsulfonyl)benzamide]	–	> 3000 nM
83.4 nM	–	Cc1cc(C(=O)NS(C)(=O)=O)c(F)cc1-c1cnc(O[C@@H](C)c2cc(Cl)ccc2Cl)c(Cl)c1 [Example 674, 4-(5-chloro-6-((1S)-1-(2,5-dichlorophenyl)ethoxy)-3-pyridinyl)-2-fluoro-5-methyl-N-(methylsulfonyl)benzamide]	4860 nM	–
28.4 nM	–	COc1cc(C(=O)NS(C)(=O)=O)ccc1-c1cnc(Oc2c(C)cc(Cl)cc2Cl)c(C#N)c1 [Example 689, 4-(5-cyano-6-(2,4-dichloro-6-methylphenoxy)-3-pyridinyl)-3-methoxy-N-(methylsulfonyl)benzamide]	1000 nM	–
80.6 nM	–	Cc1cc(C(=O)NS(C)(=O)=O)c(F)cc1-c1cnc(Oc2ccc(Cl)c(Cl)c2)c(Cl)c1 [Example 664, 4-(5-chloro-6-(3,4-dichlorophenoxy)-3-pyridinyl)-2-fluoro-5-methyl-N-(methylsulfonyl)benzamide]	> 10000 nM	–
–	23.1 nM	Cc1cc(C(=O)NS(=O)(=O)c2nccs2)c(F)cc1-c1cnc(Oc2c(C)cc(Cl)cc2Cl)c(Cl)c1 [Example 799, 4-(5-chloro-6-(2,4-dichloro-6-methylphenoxy)-3-pyridinyl)-2-fluoro-5-methyl-N-(1,3-thiazol-2-ylsulfonyl)benzamide]	–	669 nM
49.7 nM	–	Cc1cc(C(=O)NS(C)(=O)=O)c(F)cc1-c1cnc(Oc2c(F)cc(F)cc2Cl)c(Cl)c1 [Example 666, 4-(5-chloro-6-(2-chloro-4,6-difluorophenoxy)-3-pyridinyl)-2-fluoro-5-methyl-N-(methylsulfonyl)benzamide]	3410 nM	–
70.5 nM	–	Cc1cc(C(=O)NS(C)(=O)=O)c(F)cc1-c1cnc(Oc2cc(C(F)(F)F)ccc2Cl)c(Cl)c1 [Example 642, 4-(5-chloro-6-(2-chloro-5-(trifluoromethyl)phenoxy)-3-pyridinyl)-2-fluoro-5-methyl-N-(methylsulfonyl)benzamide]	> 3000 nM	–
–	82.8 nM	COc1cc(C(=O)NS(C)(=O)=O)ccc1-c1cnc(Oc2cc(Cl)cc(Cl)c2)c(C)c1 [Example 841, 4-(6-(3,5-Dichlorophenoxy)-5-Methyl-3-Pyridinyl)-3-Methoxy-N-(Methylsulfonyl)Benzamide]	–	> 3000 nM
83.6 nM	–	Cc1cc(C(=O)NS(C)(=O)=O)c(F)cc1-c1cnc(Oc2c(Cl)ccc(C)c2F)c(Cl)c1 [Example 670, 4-(5-chloro-6-(6-chloro-2-fluoro-3-methylphenoxy)-3-pyridinyl)-2-fluoro-5-methyl-N-(methylsulfonyl)benzamide]	> 10000 nM	–
–	110 nM	CCCS(=O)(=O)NC(=O)c1cc(C)c(-c2cnc(OC3CCC3)c(Cl)c2)cc1F [Example 796, 4-(5-chloro-6-(cyclobutyloxy)-3-pyridinyl)-2-fluoro-5-methyl-N-(propylsulfonyl)benzamide]	–	9310 nM
